Reference: PMC9069992 (Journal of the American Chemical Society, 2022)

What was measured:
GA of HeLa cells = assay: CLSM / single cell imaging of fluorescence accumulation at Golgi apparatus; assay type: cell-based, Homo sapiens; details: for effect of thioesterase inhibitor on GA accumulation of C6-NBD-Ceramide: Figures S11, S12; for effect of thioesterase inhibitor on accumulation of 1 at GA: by itself or in combination, Figures S4, S9, S10; for accumulation at / targeting of GA (in words): CLSM, fluorescence at GA, Figures S16, S30A, S33, S35-S44
[1] = tested on: neutrophils (polymorphonuclear leukocytes); assay: GA localization in primary cells; assay type: cell-based; details: Figure S24
carboxylesterase (CES1) = target: T1, carboxylesterase (CES1) (Homo sapiens, UniProt P23141); assay: Cell free hydrolysis by carboxylesterase; assay type: biochemical; details: cell free assay, Figure S13
T1 sequence (P23141 18-567): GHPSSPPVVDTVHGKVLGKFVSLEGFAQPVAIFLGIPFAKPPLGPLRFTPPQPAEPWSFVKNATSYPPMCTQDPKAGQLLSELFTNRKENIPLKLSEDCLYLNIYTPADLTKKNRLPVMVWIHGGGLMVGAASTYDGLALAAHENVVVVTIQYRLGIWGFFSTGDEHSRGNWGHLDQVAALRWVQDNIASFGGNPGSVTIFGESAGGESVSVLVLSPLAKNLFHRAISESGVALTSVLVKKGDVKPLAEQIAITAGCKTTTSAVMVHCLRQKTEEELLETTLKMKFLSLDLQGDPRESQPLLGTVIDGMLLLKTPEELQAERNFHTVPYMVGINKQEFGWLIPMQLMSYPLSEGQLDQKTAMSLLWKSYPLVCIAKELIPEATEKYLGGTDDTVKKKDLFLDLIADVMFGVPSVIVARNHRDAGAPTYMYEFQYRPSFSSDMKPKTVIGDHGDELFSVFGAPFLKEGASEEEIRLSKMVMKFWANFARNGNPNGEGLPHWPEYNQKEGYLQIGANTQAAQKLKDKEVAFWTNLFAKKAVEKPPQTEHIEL

TEM of self-assembly = assay type: physicochemical; details: 20 μM, Figure S43
[2] = tested on: GA of HeLa, Saos-2, HEK293, MCF-7, HS-5, SJSA-1, HepG2, B16F10, S2 cells; assay: CLSM of GA targeting in various cell lines; assay type: cell-based, Homo sapiens, Mus musculus, Drosophila; details: 10 μM, 8 min, Figure 2B
[3] = Critical micelle concentration; assay type: physicochemical; details: Figure 1C
NRAS = assay: ICC staining of NRAS distribution in MCF-7 cells; assay type: cell-based, Homo sapiens; details: MCF-7, 10 μM, 30 min, ICC staining with NRAS antibody, Figure 3C

Compound: CN(CCCCCCNc1ccnc2cc(Cl)ccc12)CCCCCCNc1ccnc2cc(Cl)ccc12 [DC661, reference compound]
- effect of thioesterase inhibitor on GA accumulation of C6-NBD-Ceramide (GA of HeLa cells): cannot block the GA accumulation
- effect of thioesterase inhibitor on accumulation of 1 at GA (GA of HeLa cells): efficiently block 1 accumulating at GA

Compound: CCCCCCCCCCCCC/C=C/[C@@H](O)[C@H](CO)NC(=O)CCCCCNc1ccc([N+](=O)[O-])c2nonc12 [C6-NBD-ceramide, C6-NBD-Ceramide, reference compound]
- accumulation at / targeting of GA (in words) (GA of HeLa cells): shows dim fluorescence over 16 minutes

Compound: CC(C)(C)C1CCN(C(=O)n2ncc(C(O)(c3ccccc3)c3ccccc3)n2)CC1 [ML211, reference compound]
- effect of thioesterase inhibitor on GA accumulation of C6-NBD-Ceramide (GA of HeLa cells): cannot block the GA accumulation
- effect of thioesterase inhibitor on accumulation of 1 at GA (GA of HeLa cells): efficiently block 1 accumulating at GA

Compound: CC(=O)SCCNC(=O)[C@@H](Cc1ccccc1)NC(=O)[C@@H](Cc1ccccc1)NC(=O)CCNc1ccc([N+](=O)[O-])c2nonc12 [compound 1]
- entry into primary cells and localization (in words) [1]: localizes at GA
- hydrolysis by carboxylesterase (CES1) (in words) (carboxylesterase (CES1)): able to catalyze the hydrolysis of 1
- accumulation at / targeting of GA (in words) (GA of HeLa cells): accumulates primarily at GA
- time after addition until GA becomes distinguishable (GA of HeLa cells; Figures S1, S2, video S1): less than 1 min
- dependence on clathrin-mediated endocytosis at 2 μM (GA of HeLa cells; HeLa treated with chlorpromazine, 2 μM of 1, Figure S8): hardly
- dependence on clathrin-mediated endocytosis at 10 μM (GA of HeLa cells; HeLa treated with chlorpromazine, 10 μM of 1, Figure S8): only slightly
- time until fluorescence plateaus outside GA (GA of HeLa cells; HeLa, 10 μM, 60 min, single cell imaging analysis, Figure 1B): > 45 min
- enhancement of fluorescence intensity at GA from 1 minute to 8 minutes (GA of HeLa cells; HeLa, Figure S15): at least 3 times
- self-assembly seen by TEM (in words) (TEM of self-assembly): self-assembles into nanoparticles and nanofibers
- targeting GA of various cells (in words) [2]: able to target GA of various cells from different organisms
- critical micelle concentration (CMC) [3]: 2.1 µM
- intracellular distribution of NRAS after pretreatment (in words) (NRAS): relocates from mainly plasma membrane to overwhelmingly GA
